# According to ChEMBL document CHEMBL5390264, “Exploring Fatty Acid Mimetics as NR4A Ligands” (J Med Chem, 2023):
# Active and inactive are the calls of the source. The rule behind the calls is not given here.
# Experiments:
# Format in all cases: cell-based
# [1] = molecular target: Nuclear receptor subfamily 4immunitygroup A member 1 (Homo sapiens, UniProt P22736); assay: Agonist activity at human Nur77 LBD transiently transfected in HEK293T cells assessed as maximal activation incubated for 16 hrs by Gal4-hybrid reporter gene based Dual-glo luciferase assay relative to control; settings: filed as agonist
# [2] = molecular target: Nuclear receptor subfamily 4 group A member 3 (Homo sapiens, UniProt Q92570); assay: Agonist activity at human NOR-1 LBD transiently transfected in HEK293T cells assessed as maximal activation incubated for 16 hrs by Gal4-hybrid reporter gene based Dual-glo luciferase assay relative to control; settings: filed as agonist
# [3] = molecular target: T1, Peroxisome proliferator-activated receptor gamma (Homo sapiens) (UniProt P37231); assay: Agonist activity at PPARgamma LBD (unknown origin) transiently transfected in HEK293T cells at 1 uM incubated for 16 hrs by Gal4-hybrid reporter gene based Dual-glo luciferase assay
# T1 sequence (whole entry): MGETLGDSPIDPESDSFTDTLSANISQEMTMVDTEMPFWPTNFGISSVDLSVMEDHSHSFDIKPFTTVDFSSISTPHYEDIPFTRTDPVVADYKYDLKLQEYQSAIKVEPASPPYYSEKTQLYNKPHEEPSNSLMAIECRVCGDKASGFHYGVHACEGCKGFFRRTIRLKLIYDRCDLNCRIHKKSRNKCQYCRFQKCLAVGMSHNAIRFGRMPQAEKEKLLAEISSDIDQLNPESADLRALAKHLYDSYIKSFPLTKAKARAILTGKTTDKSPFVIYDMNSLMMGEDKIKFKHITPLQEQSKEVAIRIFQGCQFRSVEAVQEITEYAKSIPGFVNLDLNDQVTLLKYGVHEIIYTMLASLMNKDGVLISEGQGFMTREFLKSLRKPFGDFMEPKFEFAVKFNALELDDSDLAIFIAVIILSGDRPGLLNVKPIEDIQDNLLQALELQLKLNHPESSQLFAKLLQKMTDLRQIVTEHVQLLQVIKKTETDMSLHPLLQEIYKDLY
# [4] = molecular target: T2, Peroxisome proliferator-activated receptor delta (Homo sapiens) (UniProt Q03181); assay: Agonist activity at PPARdelta LBD (unknown origin) transiently transfected in HEK293T cells at 1 uM incubated for 16 hrs by Gal4-hybrid reporter gene based Dual-glo luciferase assay
# T2 sequence (whole entry): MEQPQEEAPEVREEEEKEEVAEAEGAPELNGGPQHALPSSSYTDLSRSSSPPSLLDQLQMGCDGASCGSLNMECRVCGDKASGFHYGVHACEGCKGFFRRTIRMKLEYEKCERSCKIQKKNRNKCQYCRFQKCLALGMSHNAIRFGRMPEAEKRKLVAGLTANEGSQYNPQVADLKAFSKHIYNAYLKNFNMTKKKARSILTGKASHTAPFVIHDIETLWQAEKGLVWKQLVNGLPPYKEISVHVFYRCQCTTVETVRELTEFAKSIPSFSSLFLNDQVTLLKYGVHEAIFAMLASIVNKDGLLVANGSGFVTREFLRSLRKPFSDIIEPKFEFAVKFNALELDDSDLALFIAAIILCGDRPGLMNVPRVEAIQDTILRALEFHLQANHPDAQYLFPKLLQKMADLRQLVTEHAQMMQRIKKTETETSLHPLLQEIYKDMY
# [5] = molecular target: T3, Vitamin D3 receptor (Homo sapiens) (UniProt P11473); assay: Agonist activity at VDR LBD (unknown origin) transiently transfected in HEK293T cells at 1 uM incubated for 16 hrs by Gal4-hybrid reporter gene based Dual-glo luciferase assay
# T3 sequence (whole entry): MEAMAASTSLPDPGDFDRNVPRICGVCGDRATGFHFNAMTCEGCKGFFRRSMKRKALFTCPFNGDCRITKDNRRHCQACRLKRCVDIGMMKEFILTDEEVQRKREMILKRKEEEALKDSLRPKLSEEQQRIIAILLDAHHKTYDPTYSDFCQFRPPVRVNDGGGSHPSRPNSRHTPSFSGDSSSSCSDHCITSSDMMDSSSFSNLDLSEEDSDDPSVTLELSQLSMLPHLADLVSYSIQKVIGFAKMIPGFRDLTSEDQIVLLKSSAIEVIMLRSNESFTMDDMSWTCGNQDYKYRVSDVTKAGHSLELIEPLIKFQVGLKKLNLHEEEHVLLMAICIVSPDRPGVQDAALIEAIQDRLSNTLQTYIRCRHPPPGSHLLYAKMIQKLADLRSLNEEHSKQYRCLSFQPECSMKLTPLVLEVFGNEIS
# [6] = molecular target: T4, Bile acid receptor (Homo sapiens) (UniProt Q96RI1); assay: Agonist activity at FXR LBD (unknown origin) transiently transfected in HEK293T cells at 1 uM incubated for 16 hrs by Gal4-hybrid reporter gene based Dual-glo luciferase assay
# T4 sequence (whole entry): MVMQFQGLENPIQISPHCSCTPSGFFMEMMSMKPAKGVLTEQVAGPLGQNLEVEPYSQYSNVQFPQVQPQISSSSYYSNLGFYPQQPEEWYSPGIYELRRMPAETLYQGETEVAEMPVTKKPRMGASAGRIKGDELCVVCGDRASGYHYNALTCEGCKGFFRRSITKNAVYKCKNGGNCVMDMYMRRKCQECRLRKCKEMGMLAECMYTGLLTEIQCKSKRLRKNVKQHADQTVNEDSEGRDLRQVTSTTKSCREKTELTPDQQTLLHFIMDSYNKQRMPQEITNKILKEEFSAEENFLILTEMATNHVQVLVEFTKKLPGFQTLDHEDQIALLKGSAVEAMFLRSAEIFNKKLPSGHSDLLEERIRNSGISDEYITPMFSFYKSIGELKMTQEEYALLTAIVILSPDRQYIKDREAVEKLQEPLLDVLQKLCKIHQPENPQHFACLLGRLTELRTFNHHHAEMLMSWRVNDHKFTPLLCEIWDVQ
# [7] = Selectivity ratio for agonist activity at PPARdelta LBD (unknown origin) transiently transfected in HEK293T cells to agonist activity at human Nur77 LBD transiently transfected in HEK293T cells
# [8] = Selectivity ratio for agonist activity at RARalpha LBD (unknown origin) transiently transfected in HEK293T cells to agonist activity at human Nurr1 LBD transiently transfected in HEK293T cells
# [9] = Selectivity ratio for agonist activity at VDR LBD (unknown origin) transiently transfected in HEK293T cells to agonist activity at human Nurr1 LBD transiently transfected in HEK293T cells
# [10] = Selectivity ratio for agonist activity at FXR LBD (unknown origin) transiently transfected in HEK293T cells to agonist activity at human Nurr1 LBD transiently transfected in HEK293T cells
# [11] = Selectivity ratio for agonist activity at RARalpha LBD (unknown origin) transiently transfected in HEK293T cells to agonist activity at human NOR-1 LBD transiently transfected in HEK293T cells
# [12] = Selectivity ratio for agonist activity at PPARdelta LBD (unknown origin) transiently transfected in HEK293T cells to agonist activity at human NOR-1 LBD transiently transfected in HEK293T cells
# [13] = Selectivity ratio for agonist activity at VDR LBD (unknown origin) transiently transfected in HEK293T cells to agonist activity at human NOR-1 LBD transiently transfected in HEK293T cells
# Sequence of Nuclear receptor subfamily 4 group A member 3 (Q92570 whole entry, the tested form may be a part): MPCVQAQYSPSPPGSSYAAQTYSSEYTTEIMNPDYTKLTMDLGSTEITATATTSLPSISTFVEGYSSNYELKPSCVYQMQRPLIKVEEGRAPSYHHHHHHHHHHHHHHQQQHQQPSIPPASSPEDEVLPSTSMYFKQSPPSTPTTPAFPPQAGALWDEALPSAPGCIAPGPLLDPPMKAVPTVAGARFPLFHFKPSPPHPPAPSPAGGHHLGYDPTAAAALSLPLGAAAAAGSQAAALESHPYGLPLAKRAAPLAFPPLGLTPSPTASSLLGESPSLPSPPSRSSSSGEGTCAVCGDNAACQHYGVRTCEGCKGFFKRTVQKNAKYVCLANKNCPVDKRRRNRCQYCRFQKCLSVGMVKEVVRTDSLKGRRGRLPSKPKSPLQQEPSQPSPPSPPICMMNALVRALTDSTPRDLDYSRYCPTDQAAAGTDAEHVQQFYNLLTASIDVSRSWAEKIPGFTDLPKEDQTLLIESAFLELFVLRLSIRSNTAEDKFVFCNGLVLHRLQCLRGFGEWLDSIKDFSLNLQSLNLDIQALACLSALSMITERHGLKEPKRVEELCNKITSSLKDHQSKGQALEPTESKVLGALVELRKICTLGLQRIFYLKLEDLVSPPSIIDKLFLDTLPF
# Sequence of Nuclear receptor subfamily 4immunitygroup A member 1 (P22736 whole entry, the tested form may be a part): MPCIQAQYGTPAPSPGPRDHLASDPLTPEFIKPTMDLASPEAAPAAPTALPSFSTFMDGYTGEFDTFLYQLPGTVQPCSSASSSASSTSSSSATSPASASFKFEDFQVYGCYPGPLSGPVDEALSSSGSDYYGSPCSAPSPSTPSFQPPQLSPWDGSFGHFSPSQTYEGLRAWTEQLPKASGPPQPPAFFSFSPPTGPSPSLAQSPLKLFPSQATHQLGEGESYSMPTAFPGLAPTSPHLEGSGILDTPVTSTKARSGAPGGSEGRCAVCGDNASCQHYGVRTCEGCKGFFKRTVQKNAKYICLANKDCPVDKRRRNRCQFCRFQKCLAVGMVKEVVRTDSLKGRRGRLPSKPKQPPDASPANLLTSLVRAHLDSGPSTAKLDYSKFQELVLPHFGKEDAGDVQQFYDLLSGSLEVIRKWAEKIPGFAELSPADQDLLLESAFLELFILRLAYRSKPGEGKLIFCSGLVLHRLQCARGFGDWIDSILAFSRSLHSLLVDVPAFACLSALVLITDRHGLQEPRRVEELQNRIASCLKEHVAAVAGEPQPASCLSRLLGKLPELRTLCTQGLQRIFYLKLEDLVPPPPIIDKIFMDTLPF
smiles,measurement,setting,value
CC(C)(C)c1ccc(COc2cccc(C(=O)O)c2)cc1,Emax,[1],163%
same,Emax,[2],185%
same,Activity,[3],inactive
same,Activity,[4],inactive
same,Activity,[5],inactive
same,Activity,[6],inactive
same,Selectivity ratio,[7],> 30
same,Selectivity ratio,[8],> 30
same,Selectivity ratio,[9],> 30
same,Selectivity ratio,[10],> 30
same,Selectivity ratio,[11],> 30
same,Selectivity ratio,[12],> 30
same,Selectivity ratio,[13],> 30
